The values below come from patent US20200352906A1, “Heterobicyclic Carboxylic Acids for Treating Cancer or Inflammatory Diseases” (Shenzhen Ionova Life Science Co., Ltd., priority 2018, published 2020).

The test system of data set [1] is arthritis mice (AIA model). As to the kind of experiment: In vivo anti-inflammatory activity, AIA arthritis model. How it is done: Male Lewis Rates of 8-10 weeks old were fed with fixed amount of foods and free water at 20±2° C., under light in the 12-hour light and 12-hour darkness cycle and with the humidity of 45-70%. All mice were provided adjusted living for three days before they were used in test. 56 of such mice were divided into 7 groups with 8 mice in each group. One group was a control group and received only 1% CMCNa solution; one group was a model group and also received only 1% CMCNa solution; one group was a positive group and received Celecoxib at 18 mg/kg, and the other four groups received solutions of tested compound at the 1 mg/kg, 3 mg/kg, 10 mg/kg and […] dosages respectively.
1% CMC-Na was prepared with 1.00277 g of CMC-Na in 100 mL distilled water, heated with a 60° C. water bath until CMC-Na fully dissolved.
18 mg/kg Celecoxib capsule: 18.09 mg Celecoxib was placed into a grinder into which 10 mL 1% CMC-Na solution was added slowly. The mixture was ground until Celecoxib fully dissolved.
10 mg/kg C-003 solution: 10.08 mg of a tested compound (4-(1-{[2-Methyl-4-(4-trifluoromethyl-benzyl)-4H-thieno[3,2-b]pyrrole-3-carbonyl]-amino}-cyclopropyl)-benzoic acid diethanolamino salt, which is referred to hereinafter as INV-1120 diethanolamino salt) was added into a grinder, into which 10 mL 1% CMC-Na solution was slowly added until INV-1120 diethanolamino salt fully dissolved.
30 mg/kg INV-1120 solution: 30.3 mg of INV-1120 diethanolamino salt was added into a grinder, into which 10 mL 1% CMC-Na solution was slowly added until INV-1120 diethanolamino salt fully dissolved.
1 mg/kg INV-1120 was prepared by mixing 1.0 mL of 10 mg/kg INV-1120 diethanolamino salt solution with 9 mL 1% CMC-Na.
3 mg/kg INV-1120 was prepared by mixing 1.0 mL of 30 mg/kg INV-1120 diethanolamino salt solution with 9 mL 1% CMC-Na.
After the mice were subject to Anesthesia, they were cleaned with medical alcohol at their right feet. The mice in the control group were administered with 50 uL PBS, and the mice of the other groups were treated at the right feet with 50 uL CDA solution. One day before the establishment of the model, the basic size (volume) of each mice was measured, the date of the model establishment was D1, test compound was administered at 1 mL/100 g to the stomach starting on D13 daily for 12 days (ending on D24).
The mice were examined and photos were taken every three days for their water intakes, food intakes, and weights; every four days for their abilities to withstand weight at their rear feet; every three days for the swelling volumes and swelling thickness and temperatures of their feet, as well as their behaviors.

A further data set relates to Lewis lung carcinoma. Nature of the data set: In vivo pharmacodynamic test on growth of LLC (Lewis Lung Cancer). Also on record: species or system mice. The conditions noted are these: 90 mg/kg/day, after 9 days of treatment, p<0.01 vs control. How it is done:
LLC (1×10^6 cells) were injected subcutaneously into the mid-dorsum of 6-week-old male C57BL/6 mice (The Jackson Laboratory, Bar Harbor, Me.) at 100 μL/mouse. Mice were systemically treated with INV-1120 (90 mg/kg/day), anti-PD1 (200 ug Q 3 days), INV-1120 (90 mg/kg/day) and anti-PD1 (200 ug Q 3 days), or vehicle (0.45% methylcellulose) in a total volume of 100 μL via orally by gavage. Treatment initiated when tumors reached approximately 249 mm^3 to 297 mm^3. Tumor size was measured by caliper (width^2×length×0.52=mm^3).

Data set [2] relates to MC38 murine colon adenocarcinoma. Nature of the data set: In vivo pharmacodynamic test on subcutaneous murine colon adenocarcinoma (MC38). Also on record: species or system mice. Particulars: 60 mg/kg/day, after 15 days of treatment, p<0.0001 vs control. How it is done:
All animal studies were reviewed and approved by the Animal Care and Use Committee of Beth Israel Deaconess Medical Center, Boston, Mass. Animals were housed at a maximum of 5 animals per cage in a pathogen-free facility with unlimited access to sterile water and chow. Daily welfare evaluations and animal sacrifices were carried out according to the Committee guidelines. MC38 mouse colon adenocarcinoma cells (Kerafast, Boston, Mass., USA) were cultured in DMEM that was supplemented with 10% FBS, 1% GPS, 0.1 mM nonessential amino acids (MilliporeSigma), 1 mM sodium pyruvate (MilliporeSigma), 10 mM Hepes (MilliporeSigma), and […] gentamycin sulfate (MilliporeSigma). Adherent cells were trypsinized, pelleted, counted by hemocytometer, and injected into mice at 1×10^6 cells/mL in PBS.
Cells were injected subcutaneously into the mid-dorsum of 6-week-old male C57BL/6 mice (The Jackson Laboratory, Bar Harbor, Me.) at 100 μL/mouse. Mice were systemically treated with Compound 1 (INV-1120, 60 mg/kg/day), anti-PD1 (200 ug Q 3 days), INV-1120 (60 mg/kg/day) and anti-PD1 (200 ug Q 3 days), or vehicle (0.45% methylcellulose) in a total volume of 100 μL via orally by gavage. Treatment initiated on day 10 post-tumor cell injection, when tumors reached approximately […] to 224 mm^3. Tumor size was measured by caliper (width^2×length×0.52=mm^3).

Another data set has as its system B16F10 melanoma. As to the kind of experiment: In vivo pharmacodynamic test on growth of B16F10 melanoma. Particulars: 90 mg/kg/day, after 8 days of treatment, p<0.001 vs control. Also on record: species or system mice. How it is done:
B16F10 (1×10^6 cells) were injected subcutaneously into the mid-dorsum of 6-week-old male C57BL/6 mice (The Jackson Laboratory, Bar Harbor, Me.) at 100 μL/mouse. Mice were systemically treated with Compound 1 (INV-1120, 90 mg/kg/day), anti-PD1 (200 ug Q 3 days), INV-1120 (90 mg/kg/day) and anti-PD1 (200 ug Q 3 days), or vehicle (0.45% methylcellulose) in a total volume of 100 μL via orally by gavage. Treatment initiated on day 10 post-tumor cell injection, when tumors reached approximately 100 mm^3 to 116 mm^3. Tumor size was measured by caliper (width^2×length×0.52=mm^3).

The test system of data set [3] is colon cancer CT26 transplanted tumor. Nature of the data set: In vivo pharmacodynamic test on growth of colon cancer CT26 transplanted tumor in mice. How it is done:
CT26 tumor cell line was maintained in vitro as monolayer culture in RPMI-1640 Media supplemented with 10% heat inactivated fetal calf serum at 37° C. in an atmosphere of 5% CO2 in air. The tumor cells were routinely sub-cultured twice weekly by trypsin-EDTA treatment, not to exceed 4-5 passages. The cells growing in an exponential growth phase were harvested and counted for tumor inoculation.
Each mouse was inoculated subcutaneously on the right lower flank with the single cell suspension of 95% viable tumor cells (3×10^5) in 0.1 mL of serum-free RPMI 1640 Media for tumor development. Each mouse was administered with a test compound of this invention when mean tumor size reached approximately 100 mm^3. Each group consisted of 6 mice. The mice were randomized to different treatment groups as shown in the table under ‘Groups and Treatment’. The mice were lightly anesthetized before implantation. Care was taken to ensure subcutaneous delivery of cells by lifting up the fold of skin with sterilized forceps and injecting cells. Any tumors that completely or partially grew intradermally (ID) or intramuscularly (IM) were not used.
CT26 cells were maintained in RPMI 1640 medium supplemented with 10% FBS at 37° C. and 5% CO2 atmosphere. Cell detachment was obtained using standard trypsinization methods, quantification of cell numbers and viability information using the NC-200 automated cell counter. Compound 1 (INV-1121) was thoroughly suspended in 0.5% methyl cellulose (MC) by sonication at 4° C. for 15 min before oral administration (p.o.) to animals. BALB/c mice were injected subcutaneously (s.c.) with live 1×10^5 […]. Mice developed tumors of approximately 36 mm^3 in 5 days. CT26 tumor-bearing mice were randomized and mapped into 5 groups of 10 mice each: group A received vehicle (0.5% MC); group B received 0.1 mg/kg of Compound 1; group C received 1 mg/kg of Compound 1, group D received 25 mg/kg of Compound 1; and group E received 150 mg/kg of Compound 1. All treatments were give Compound 1 p.o. daily for 21 consecutive days. Tumor volumes and body weights were measured twice weekly. Study was terminated 27 days after tumor cell injection. Tumor volumes were expressed as mean: t SEM. Tumor volume differences among treated mouse groups on day 27 were analyzed by the one-way ANOVA followed by Tukey's test. P<0.05 values were considered significant.
For routine monitoring, all study animals were monitored not only tumor growth but also behavior such as mobility, food and water consumption (by cage side checking only), body weight (BW), eye/hair matting and any other abnormal effect. All mortality and/or abnormal clinical signs were recorded.
Body weights of all animals are measured twice/week throughout the study. The measurement dates will specify as study design. Body weight change, expressed in %, was calculated using the following formula:
BW change (%)=((BWDay X−BWDay 0)/BWDay 0)×100
The measurement of tumor size was conducted twice/week with a caliper and the tumor volume (mm3) will be estimated using the formula: TV=a×b 2/2, where “a” and “b” is long and short diameters of a tumor, respectively. The TVs were used for calculation of the tumor growth inhibition (TGI, an indicator of antitumor effectiveness) value using the formula: TGI=(1−T/C)×100%, where “T” and “C” is the mean relative volumes (% tumor growth) of the tumors in the treated and the control groups, respectively. The experiment was terminated when the mean tumor volume exceeded 2000 mm3 or severe body weight loss.

Where [4] appears, read: Example 6, studies as described in Example 5, compared with Example 5.
[5] abbreviates: vs animals without administration of tested compounds.

Take `Cc1sc2ccn(Cc3ccc(C(F)(F)F)cc3)c2c1C(=O)NC1(c2ccc(C(=O)O)cc2)CC1.NC(CO)(CO)CO` [4-(1-{[2-Methyl-4-(4-trifluoromethyl-benzyl)-4H-thieno[3,2-b]pyrrole-3-carbonyl]-amino}-cyclopropyl)-benzoic acid tris(hydroxymethyl)aminomethane salt]: in data set [1] (setting [4]), the “balancing or coordination ability after treatment” value is listed as “better balancing or coordination ability” and the “reduction of swelling on the arthritis feet” value is recorded as “even more effective reduction of swelling”.
Consider `Cc1sc2ccn(Cc3ccc(C(F)(F)F)cc3)c2c1C(=O)NC1(c2ccc(C(=O)O)cc2)CC1.OCCNCCO` [INV-1120 diethanolamino salt, 4-(1-{[2-Methyl-4-(4-trifluoromethyl-benzyl)-4H-thieno[3,2-b]pyrrole-3-carbonyl]-amino}-cyclopropyl)-benzoic acid diethanolamino salt], for which the “temperatures of the feet” value in data set [1] (1, 3, 10 and 40 mg/kg to the stomach daily D13-D24, FIG. 5) was “had effect in lowering the temperatures”. Besides, the “swelling (volumes and thickness) of the feet” value in data set [1] (1, 3, 10 and 40 mg/kg to the stomach daily D13-D24, FIG. 6) is “had effect in lowering the temperatures and swelling (both volumes and thickness)”. Also, the “behavior patterns (e.g., balancing capability)” value in data set [1] (mouse, in vivo) is given as “improved behavior patterns”. Also, in data set [1] (setting [5]), the “ability to withstand weight (rear feet)” value was “greater weight gains and ability to withstand weight”; the weight gains entry is “greater weight gains”.
Turning to `Cc1sc2ccn(Cc3ccc(C(F)(F)F)cc3)c2c1C(=O)NC1(c2ccc(C(=O)O)cc2)CC1` [INV-1120, 4-(1-{[2-Methyl-4-(4-trifluoromethyl-benzyl)-4H-thieno[3,2-b]pyrrole-3-carbonyl]-amino}-cyclopropyl)-benzoic acid], the “inhibition of primary Lewis lung carcinoma growth vs control” value with Lewis lung carcinoma was “inhibited primary Lewis lung carcinoma growth”. Besides, in data set [2], the “inhibition of primary tumor growth vs control” value was “inhibited primary MC38 murine colon adenocarcinoma”. Also, the “inhibition of primary melanoma growth vs control” value in the data set on B16F10 melanoma was “inhibited primary 16F10 melanoma growth”.
Turning to `O=C(O)c1ccc(C2(NC(=O)c3csc4ccn(Cc5ccc(C(F)(F)F)cc5)c34)CC2)cc1` [INV-1121], the tumor growth inhibition entry is recorded as “some inhibition was observed, but without statistical significance” in data set [3] (0.1 mg/kg p.o. daily) and “some inhibition was observed, but without statistical significance” in data set [3] (1.0 mg/kg p.o. daily). Moreover, the anti-tumor activity entry is “significant and comparable anti-tumor activity” in data set [3] (25 mg/kg p.o. daily); “significant and comparable anti-tumor activity” in data set [3] (150 Mg/kg p.o. daily). The “gross toxicity judged from animal body weight and overall animal behavior” value in data set [3] (all doses tested, 0.1-150 mg/kg p.o. daily) was “None of the doses tested showed gross toxicity”. Moreover, the “tumor growth inhibition, dose dependence” value in data set [3] (daily oral administration, range 0.1 mg/kg-150 mg/kg, 21 consecutive days, FIG. 1) is listed as “inhibited the tumor growth in a dose-dependent manner”.
